Data from publication PMC6987120, “Structural insights into ATP hydrolysis by the MoxR ATPase RavA and the LdcI-RavA cage-like complex” (Communications Biology, 2020).

Assays:
RavA = target: T1, RavA (Escherichia coli, UniProt P31473); assay: cryo-EM, […] and […] A maps with flexible fitting; format: binding; conditions: 1 mM ADP; intersubunit site; spiral with five ADP, closed ring with four ADP per hexamer
T1 construct: homohexamer (6 copies), open spiral and C2-symmetric closed ring; site at the interface of adjacent monomers
T1 sequence (P31473 whole entry): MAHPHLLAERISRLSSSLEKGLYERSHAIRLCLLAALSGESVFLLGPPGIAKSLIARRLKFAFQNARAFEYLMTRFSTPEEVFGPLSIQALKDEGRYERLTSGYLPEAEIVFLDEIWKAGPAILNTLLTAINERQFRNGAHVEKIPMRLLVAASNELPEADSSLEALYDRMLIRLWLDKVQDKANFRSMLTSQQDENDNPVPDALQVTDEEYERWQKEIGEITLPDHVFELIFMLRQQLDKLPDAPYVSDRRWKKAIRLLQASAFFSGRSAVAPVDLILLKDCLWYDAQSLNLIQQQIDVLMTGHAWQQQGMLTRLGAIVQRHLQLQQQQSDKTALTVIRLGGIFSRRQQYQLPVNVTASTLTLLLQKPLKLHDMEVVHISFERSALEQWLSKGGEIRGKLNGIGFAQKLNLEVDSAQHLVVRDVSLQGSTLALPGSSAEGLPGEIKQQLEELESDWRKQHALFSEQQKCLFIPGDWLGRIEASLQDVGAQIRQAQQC

LdcI–RavA complex [1] = target: T2, LdcI–RavA complex (Escherichia coli, UniProt P31473); assay: cryo-EM, […] and […] A maps with flexible fitting; format: binding; conditions: 2 mM ADP, 10 mM MgCl2, 0.1 mM PLP, pH 7.9; low local resolution of RavA
T2 construct: purified RavA and LdcI mixed in vitro; LdcI expressed in a ppGpp-null E. coli MG1655 host; with Inducible lysine decarboxylase
T2 sequence (P31473 whole entry): as above
T2 sequence (P0A9H3 whole entry partner): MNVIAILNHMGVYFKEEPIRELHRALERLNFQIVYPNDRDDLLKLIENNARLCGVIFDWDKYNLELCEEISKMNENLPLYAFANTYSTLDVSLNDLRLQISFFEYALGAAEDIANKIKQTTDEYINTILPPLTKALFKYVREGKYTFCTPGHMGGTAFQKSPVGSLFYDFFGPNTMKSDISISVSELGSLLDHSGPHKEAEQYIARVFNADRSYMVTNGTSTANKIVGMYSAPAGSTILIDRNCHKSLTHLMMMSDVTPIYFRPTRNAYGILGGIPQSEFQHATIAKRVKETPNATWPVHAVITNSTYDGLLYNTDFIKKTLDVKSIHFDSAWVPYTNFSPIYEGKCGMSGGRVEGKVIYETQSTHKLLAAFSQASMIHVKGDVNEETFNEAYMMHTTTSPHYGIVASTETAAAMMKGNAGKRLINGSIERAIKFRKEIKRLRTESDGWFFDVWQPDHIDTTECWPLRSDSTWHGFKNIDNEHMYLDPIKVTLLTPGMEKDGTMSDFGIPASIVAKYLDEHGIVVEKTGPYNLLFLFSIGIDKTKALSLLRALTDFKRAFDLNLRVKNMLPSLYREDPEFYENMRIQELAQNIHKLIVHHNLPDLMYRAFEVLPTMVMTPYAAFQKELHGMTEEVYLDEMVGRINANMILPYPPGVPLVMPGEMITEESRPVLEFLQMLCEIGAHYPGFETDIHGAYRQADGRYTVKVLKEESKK

LdcI–RavA complex [2] = target: T2, LdcI–RavA complex; assay: ATPase assay, inorganic phosphate by Fiske and Subbarow; format: biochemical; conditions: 2 mM ATP, 10 mM MgCl2, 50 mM MES/Tris pH 5-9, 25 °C; three-fold molar excess of LdcI

SMILES	cryo-EM, 5.96 and 6.94 A maps with flexible fitting (RavA)	cryo-EM, 7.6 and 7.8 A maps with flexible fitting (LdcI–RavA complex [1])	ATPase assay, inorganic phosphate by Fiske and Subbarow (LdcI–RavA complex [2])
Nc1ncnc2c1ncn2[C@@H]1O[C@H](COP(=O)(O)OP(=O)(O)O)[C@@H](O)[C@H]1O [ADP]	The map contains densities attributed to five ADP molecules bound to the interface	Cryo-EM maps of the two classes of the LdcI–RavA complex in ADP-bound state	–
Nc1ncnc2c1ncn2[C@@H]1O[C@H](COP(=O)(O)OP(=O)(O)OP(=O)(O)O)[C@@H](O)[C@H]1O [ATP]	–	–	RavA is still able to efficiently hydrolyse ATP in the LdcI–RavA cage
